Experimental data as given in patent publication US11701360B2, “Composition for inducing differentiation and protection of neural stem cells and method for inducing neuro-regeneration using the same composition” (GENUV Inc., priority 2017, dated 2023).

Assays:
[1] = test system: mouse embryonic neural stem cells; experiment: Morphology analysis (phase-contrast) of NSC differentiation in mouse embryonic neural stem cells; format: cell-based; conditions: 4 days of culture
Procedure: Neural stem cells were isolated from the brain of a day 14.5 mouse embryo, treated with 10 ng/ml human basic fibroblast growth factor (bFGF) (Peprotech, Princeton, NG, cat #0.100-18B) and 20 ng/ml human epidermal growth factor (EGF) (Peprotech, cat #. AF-100-15) in a N2 culture medium, and cultured in suspension in a 25 cm2 flask (Nunc, Pittsburgh, Pa.) for 4 days. Formation of neurospheres was observed after 2 days.
In order to isolate single cells, 6-well plates were prepared the day before by treating the wells with 15 μg/ml poly-L-ornithine (Sigma, St. Louis, Mo., cat #.P2533) solution and incubating overnight at 37° C. for coating. The day of the single cell isolation, poly-L-ornithine solution was removed, the plates were washed with PBS three times, and 10 μg/ml fibronectin (Gibco, Waltham, Mass., cat #. 33016015) solution was added and incubated at 37° C. for 2 hours for coating.
Various concentrations of the compound of [Formula 1]
FIG. 10b is the analysis of Tuj1 mRNA expression in the cells of each group.

[2] = test system: mouse adult neural stem cells; conditions: 10 nM and 100 nM; regardless of 10 μM amyloid-beta; 4 days
Procedure: NSC were isolated from the subventricular zone of week 8 mouse brain, treated with 20 ng/ml human basic fibroblast growth factor (bFGF) and 20 ng/ml human epidermal growth factor (EGF) in an IPM medium, and cultured as a suspension in 24-well plates for 7 days.
Two days before the isolation of single cells, 6-well plates were prepared by treating the wells with 10 μg/ml poly-L-ornithine solution and incubating overnight at room temperature for coating. The next day, poly-L-ornithine solution was removed and the plates were washed 3 times with sterilized triple distilled water. […] The culture solution used is N2 culture medium (supplemented with 20 ng/ml bFGF and 20 ng/ml EGF). Right before seeding, the coating solution was suctioned out, and the single cells were uniformly seeded into the culture plate before the plate dried up. Cells were allowed to attach to the plates for about one minute, and after checking that cells were sufficiently attached, an additional 1.5 ml of culture medium (N2 culture medium with 20 ng/ml bFGF and 20 ng/ml EGF) was added to the cells and cultured in a 37° C. incubator for 24 hours.
Wells not treated with amyloid-beta were left to use as negative controls.
Gibco's (Waltham, Mass.) human Aβ (1-42) was purchased to use for the amyloid-beta (Aβ), and the following process was followed to create oligomers. […] Then, it was dried for 10 minutes in a speed Vac, after which DMSO (Sigma, cat #.D2650) was added to bring the concentration to 5 mM and then lightly vortexed at room temperature for 10 minutes. […] The solution was incubated at 4° C. for 24 hours and then added into the cultured cells.
The NCSs were cultured with the daily addition of EGF, bFGF, amyloid-beta, and test materials for 4 days.

[3] = test system: mouse embryonic neural stem cells; experiment: Immunocytochemistry analysis (Tuj1/DAPI staining); format: cell-based; conditions: 10 nM; 4 days
Procedure: Tuj1 (Neuron specific class III beta-tubulin) is a neuron specific marker protein, which was conjugated to rhodamine to show fluorescent red, while DAPI binds to the cell DNA and stains the cell nuclei fluorescent blue. […] The medium was removed and the cells were washed with PBS. After fixing with 10% formaldehyde (Sigma cat #. HT501128) at room temperature for 10 minutes, they were washed again with PBS. They were permeabilized with 0.2% Triton X-100 (Sigma, cat #. 93443) at room temperature for 15 minutes, washed with PBS, and incubated with 10% BSA (Sigma, cat #. A2153)+1% normal goat serum (Vector lab, Burlingame, Calif., cat #. S1000) at room temperature for 1 hour. […] The solution was removed, washed with PBS, and incubated at room temperature for 1 hour with the secondary antibody (rhodamine-conjugated antibody) diluted in 1% BSA+1% normal goat serum at a ratio of 1:200. Then, the cells were washed with PBS, incubated with 5 μg/ml DAPI (Sigma, cat #. D9542) for 5 minutes, washed with PBS again, and mounted on a slide glass for analysis with a fluorescent microscope.

[4] = test system: mouse embryonic neural stem cells; experiment: qRT-PCR of neuronal marker mRNA expression in mouse embryonic NSC; format: cell-based
Procedure: Isopropanol (Ducsan, GyunggiDo, Korea, cat #. 67-63-0) was added and mixed for RNA isolation, then centrifuged again to remove the supernatant and obtain the pellet. The RNA pellet was resuspended in 75% ethanol (Ducsan, cat #. 64-17-15), centrifuged, and the supernatant removed. The pellet was then resuspended in sterilized triple distilled water to obtain the mRNA, incubated for 10 minutes at 55° C., and stored at −80° C.
Sterilized triple distilled water, 1 pM oligo dT, and 1 mM dNTP were added to the RNA and incubated for 5 minutes at 65° C. This was followed by the addition of 5× First-strand buffer, 10 mM DTT, and M-MLV reverse transcriptase and incubated at 42° C. for 1 hour, then at 72° C. for 15 minutes, and at 4° C. for 30 minutes. The synthesized cDNA was stored at −20° C.
The term relative mRNA expression level signifies that in order to normalize each group's total RNA level, the mRNA expression level of each differentiation marker is divided by the expression level of GAPDH whose expression level is fairly constant across cells, and then the values of each test material are compared with those of the controls (undifferentiated NSC) in each group.

[5] = test system: mouse adult neural stem cells; experiment: qRT-PCR of neuronal marker mRNA expression in mouse adult NSC; format: cell-based; conditions: 10 nM; 2 days
5XFAD mouse [6] = experiment: NeuN immunohistochemical staining of brain slices, 5XFAD AD model mouse; format: in vivo; conditions: orally daily for 28 days; vs vehicle
Procedure: The mouse was then anesthetized and perfused with PBS for the extraction of the brain. […] The other half of the hemispheres plus another 3 extracted mice brains per group were placed in 10% formalin solution at 4° C. for 1 day, which was then followed with the proceeding steps to allow good penetration of paraffin into the brain tissue. The brain tissues were immersed sequentially in 70%, 80%, 95%, 100% alcohol for 1 hour each for dehydration, then immersed in xylene 3 times for 1 hour each for clearing, and embedded in paraffin by placing in liquid paraffin 2 times for 1 hour each. After these procedures, the paraffin-embedded brain tissue (paraffin block) was cut into 5 μm sections, mounted on slides, and stored at room temperature. […]
FIG. 13b indicates the number of NeuN stained cells counted and represented as the percentage of the number of cells per unit area in the motor cortex layer 5 region. Area samples were taken from 6 areas per mouse, 3 mice per group, so the number of cells counted was from a total of 18 areas.
FIG. 14b indicates the number of NeuN stained cells counted and represented as the percentage of the number of cells per unit area in the dotted area of the hippocampal subiculum shown in FIG. 14a. Area samples were taken from 3 areas per mouse, 3 mice per group, so the number of cells counted was from a total of 9 areas.

5XFAD mouse [7] = experiment: Tuj1 staining in the somatosensory cortex, 5XFAD mouse; format: in vivo
Procedure: Anti-Tuj1 antibodies were added to the brain tissue slides of 5XFAD mouse in Example 8 and incubated at 4° C. for 1 day, after which the tissue slides were fluorescently stained by incubating with Fluorescein isothiocyanate (FITC)-secondary antibodies (Invitrogen, cat #. A21121) at room temperature for 1 hour. In FIG. 15, the areas marked with arrows (→) indicate cells stained with Tuj1 and the areas marked with arrowheads (▾) indicate plaques formed by amyloid-beta aggregation. Plaques were present in both vehicle-treated and trametinib-treated groups.

5XFAD mouse [8] = experiment: Nissl, NeuN and DCX staining in the hippocampal dentate gyrus, 5XFAD mouse; format: in vivo; conditions: orally daily for 28 days
Procedure: After placing in 0.1% cresyl violet (Sigma, cat #. C5042) solution at room temperature for 15 minutes, they were dehydrated by sequentially immersing in 80%, 90%, 100% alcohol, and xylene. Coverslips were put on the slides and the neurons examined.
NeuN staining was performed by the same method as described in Example 8 as was DCX staining, but using anti-DCX antibodies (Santa Cruz, cat #. sc271390) instead of anti-NeuN antibodies.

5XFAD mouse [9] = experiment: TUNEL assay of apoptosis in brain slices, 5XFAD mouse; format: in vivo; conditions: orally daily for 28 days; vs vehicle
Procedure: The TUNEL assay stains the 3′-hydroxyl terminus of fragmented DNA, allowing the detection of cells undergoing apoptosis in the tissue.
Specifically, the brain tissue slides were permeabilized with 20 μg/ml proteinase K solution for 10 minutes, incubated with equilibration buffer for 10 minutes, and then incubated with TdT solution at 37° C. for 1 hour.

5XFAD mouse [10] = experiment: Tuj1 and calbindin staining of cerebellar Purkinje cells, 5XFAD mouse; format: in vivo; conditions: particularly 0.1 mg/kg; vs vehicle
From the text: Two slides for Tuj1 staining and three for calbindin staining are shown for each treatment group.

pERK = experiment: Western blotting of pERK in brain hemispheres, 5XFAD mouse; format: in vivo; conditions: 0.1 mg/kg and 1.0 mg/kg PO; vs vehicle
Aβ(1-40) and Aβ(1-42) = experiment: ELISA of Aβ(1-40) and Aβ(1-42) in brain hemispheres, 5XFAD mouse; format: in vivo; conditions: orally daily for 28 days; vs vehicle
MEK 1, MEK2 = conditions: cited from earlier work
5XFAD mouse [11] = experiment: BrdU staining in the hippocampal dentate gyrus, 5XFAD mouse; conditions: orally daily for 28 days; vs vehicle
Procedure: For the BrdU staining to be performed later, 50 mg/kg of BrdU (Sigma, cat #. B5002) was added to the daily dose for the last 5 days. The mouse was then anesthetized and perfused with PBS for the extraction of the brain. […] The other half of the hemispheres plus another 3 extracted mice brains per group were placed in 10% formalin solution at 4° C. for 1 day, which was then followed with the proceeding steps to allow good penetration of paraffin into the brain tissue. The brain tissues were immersed sequentially in 70%, 80%, 95%, 100% alcohol for 1 hour each for dehydration, then immersed in xylene 3 times for 1 hour each for clearing, and embedded in paraffin by placing in liquid paraffin 2 times for 1 hour each. After these procedures, the paraffin-embedded brain tissue (paraffin block) was cut into 5 μm sections, mounted on slides, and stored at room temperature. Prior to immunohistochemical staining, the tissues on the slides were rehydrated by sequentially immersing in xylene, 100%, 90%, 80%, 70%, 50% alcohol, and then water for 5 minutes each. […] The next day, the slides were incubated with anti-rabbit antibodies (Vector lab, cat #. PI-1000) at room temperature for 1 hour and then stained with DAB staining for the analysis of the neuronal distribution in the brain.

[12] = 1 nM, 10 nM, 25 nM, 100 nM, 2 days

CC(=O)Nc1cccc(-n2c(=O)n(C3CC3)c(=O)c3c(Nc4ccc(I)cc4F)n(C)c(=O)c(C)c32)c1 [trametinib, N-(3-{3-cyclopropyl-5-[(2-fluoro-4-iodophenyl)amino]-6,8-dimethyl-2,4,7-trioxo-3,4,6,7-tetrahydropyrido[4,3-d]pyrimidin-1(2H)-yl}phenyl)acetamide]
differentiation of NSC into neurons (morphology) ([1]; 10 nM, 25 nM and 100 nM): readily induced the differentiation of NSC into neurons | concentration at which differentiation of NSC into neurons is seen [1]: ≥ 10 nM | differentiation of NSC into neurons (morphology) [2]: readily induced the differentiation of NSC into neurons | neuron differentiation (Tuj1 staining) [3]: increasingly active differentiation activity | mRNA expression of GABAergic neuron marker Gad1 [4, 12]: increased with the increase in concentration | mRNA expression of cholinergic neuron marker ChAT [4, 12]: increased with the increase in concentration | mRNA expression of dopaminergic neuron marker TH [4, 12]: increased with the increase in concentration | mRNA expression of motor neuron marker Isl1 [4, 12]: increased with the increase in concentration | concentration at which differentiation-inducing effect is exerted (Tuj1, TH mRNA) ([4]; 4 days): 1 nM | mRNA expression of cholinergic neuron marker ChAT [5]: increased | mRNA expression of dopaminergic neuron marker TH [5]: increased | mRNA expression of neuronal marker Tuj1 [5]: increased | number of NeuN stained neurons, hippocampal subiculum (5XFAD mouse [6]): significant increase in the number of neurons | number of NeuN stained neurons, motor cortex layer 5 (5XFAD mouse [6]): significant increase in the number of neurons | lowest dose showing neural stem cell differentiation-inducing activity (5XFAD mouse [7]): 0.1 mg/kg/day | immature neurons stained by DCX in dentate gyrus (5XFAD mouse [8]): seen to be present | number of cells with Type 2 or Type 3 morphology in dentate gyrus (Nissl and NeuN staining) (5XFAD mouse [8]): increased considerably | number of TUNEL stained cells in somatosensory cortex and subiculum (5XFAD mouse [9]): significantly lower | axon structure of cerebellar Purkinje cells (5XFAD mouse [10]): increased axon arborization or at least with preserved axon structure | protein level of pERK in the brain (pERK): considerably lower | amount of Aβ(1-42)/Aβ(1-40) in brain (Aβ(1-40) and Aβ(1-42)): decreased | IC50 (MEK 1, MEK2): 0.92 to 3.4 nM | number of cells stained with BrdU in the dentate gyrus (5XFAD mouse [11]): an increase in the number of cells stained with BrdU
